Values joined by “and” are separate entries in the source; they are usually repeats but may differ in a detail not shown here. Identical values can stand only once.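 Interpolation was linear, between the two tested concentrations surrounding the appropriate level; five concentrations were tested over 48 hours in 96-well plates. GI50: concentration for 50% inhibition of growth. TGI marks complete inhibition of growth.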
How the values were obtained:
Assay in all cases: growth of human tumour cells (NCI), 48 h
[1] = test system: OVCAR-3 ovarian
[2] = test system: SK-MEL-5 melanoma
[3] = test system: TK-10 renal
[4] = test system: SW-620 colon
[5] = test system: SF-295 CNS
[6] = test system: 786-0 renal
[7] = test system: SK-MEL-28 melanoma
[8] = test system: MDA-MB-435
[9] = test system: SF-268 CNS
[10] = test system: CCRF-CEM leukemia

SMILES: C/C(=N\NC(=S)N1CCCCCC1)c1ccccn1
- TGI [1]: 0.172 µM
- GI50 [2]: 0.0209 µM
- TGI [2]: 1.09 µM and 0.741 µM
- TGI [3]: 8.56 µM and 7.56 µM
- GI50 [4]: < 0.0204 µM
- TGI [4]: 1.85 µM and 4.74 µM
- GI50 [5]: 0.0137 µM
- TGI [5]: 2.3 µM
- GI50 [6]: 0.0992 µM
- TGI [6]: 2.17 µM and 3.12 µM
- TGI [7]: 0.295 µM
- GI50 [8]: 0.0703 µM
- TGI [8]: 3.92 µM and 1.17 µM
- TGI [9]: 4.19 µM

SMILES: C[C@@]12CCC[C@@](C)(C(=O)O)C1CC[C@]13CC(=O)[C@](CO)(C1)[C@@H](O)CC32 (stereo not given in full)
- GI50 [1]: > 100 µM
- TGI [1]: > 100 µM
- GI50 [2]: > 100 µM
- TGI [2]: > 100 µM
- GI50 [3]: > 100 µM
- TGI [3]: > 100 µM
- GI50 [4]: > 100 µM
- TGI [4]: > 100 µM
- GI50 [5]: > 100 µM
- TGI [5]: > 100 µM
- GI50 [6]: > 100 µM
- TGI [6]: > 100 µM
- GI50 [7]: > 100 µM
- TGI [7]: > 100 µM
- GI50 [8]: > 100 µM
- TGI [8]: > 100 µM
- GI50 [9]: > 100 µM
- TGI [9]: > 100 µM

SMILES: CC(C)=CCc1cc(O)cc2c1OC(C=C(C)C)C1=C2C(=O)C2=C(C1=O)S(=O)(=O)CCN2 (stereo not given)
- GI50 [1]: 1.18 µM
- TGI [1]: 14.8 µM
- GI50 [2]: 2.75 µM
- TGI [2]: 5.05 µM
- GI50 [3]: > 16.7 µM
- TGI [3]: > 16.7 µM
- GI50 [4]: 5.34 µM
- TGI [4]: 16.5 µM
- GI50 [6]: 5.05 µM
- TGI [6]: > 16.7 µM
- GI50 [7]: 3.12 µM
- TGI [7]: 6.04 µM
- GI50 [8]: 3.05 µM
- TGI [8]: 5.8 µM
- GI50 [9]: 2.91 µM
- TGI [9]: 8.37 µM
- GI50 [10]: 5.81 µM
- TGI [10]: > 16.7 µM

SMILES: O=C(Nc1ccc(Cl)c(C(F)(F)F)c1)c1ccc(NC2=C(Cl)C(=O)N(Cc3ccccc3)C2=O)cc1
- GI50 [1]: 18.6 µM
- TGI [1]: 37.9 µM
- GI50 [3]: 19.4 µM
- TGI [3]: 34.4 µM
- GI50 [5]: 19.7 µM
- TGI [5]: 52.8 µM
- GI50 [6]: 16.2 µM
- TGI [6]: 32.9 µM
- GI50 [7]: 4.4 µM
- TGI [7]: 17.6 µM
- GI50 [8]: 19.1 µM
- TGI [8]: 36.8 µM
- GI50 [9]: 2.76 µM
- TGI [9]: 9.02 µM
- GI50 [10]: 1.98 µM
- TGI [10]: 6.07 µM

SMILES: COc1ccc(Cn2c(N)c(S(=O)(=O)c3ccc(Cl)cc3)c3nc(C#N)c(C#N)nc32)cc1
- GI50 [1]: 2.9 µM
- TGI [1]: 19.4 µM
- GI50 [2]: 49.4 µM
- TGI [2]: > 50 µM
- GI50 [3]: 11.6 µM
- TGI [3]: 41.5 µM
- GI50 [4]: > 50 µM
- TGI [4]: > 50 µM
- GI50 [5]: 10.8 µM
- TGI [5]: > 50 µM
- GI50 [6]: 3.33 µM
- TGI [6]: > 50 µM
- GI50 [7]: > 50 µM
- TGI [7]: > 50 µM
- GI50 [8]: > 50 µM
- TGI [8]: > 50 µM
- GI50 [9]: 9.25 µM
- TGI [9]: 42.3 µM

SMILES: Cc1nc2cc(Nc3nc(Nc4ccc(F)cc4)nc(-c4cccs4)n3)ccc2n1Cc1ccccc1
- GI50 [1]: 4.87 µM
- TGI [1]: 38.1 µM
- GI50 [2]: 4.18 µM
- TGI [2]: 17.3 µM
- GI50 [4]: 4.02 µM
- TGI [4]: 38.8 µM
- GI50 [5]: 3.61 µM
- TGI [5]: 16.7 µM
- GI50 [6]: 3.07 µM
- TGI [6]: 9.11 µM
- GI50 [7]: 9.47 µM
- TGI [7]: > 100 µM
- GI50 [8]: 3.85 µM
- TGI [8]: 35.2 µM
- GI50 [9]: 9.74 µM
- TGI [9]: > 100 µM
- GI50 [10]: 2.46 µM
- TGI [10]: 7.21 µM

SMILES: CSc1ccccc1C#C/C=C\C#Cc1ccccc1N
- GI50 [1]: 0.836 µM
- TGI [1]: 3.98 µM
- GI50 [2]: 3.71 µM
- TGI [2]: 16.4 µM
- GI50 [4]: 3.72 µM
- TGI [4]: 14.8 µM
- GI50 [5]: 1.83 µM
- TGI [5]: 5.55 µM
- GI50 [6]: 16.3 µM
- TGI [6]: 42.6 µM
- GI50 [7]: 24.7 µM
- TGI [7]: 50.4 µM
- GI50 [8]: 0.982 µM
- TGI [8]: 2.49 µM
- GI50 [9]: 3.3 µM
- TGI [9]: 25.4 µM
- GI50 [10]: 4.98 µM
- TGI [10]: > 100 µM

— PubChem BioAssay (NCI)
